Experimental data taken from US6943191B1, “Disubstituted lavendustin A analogs and pharmaceutical composition comprising the analogs” (The United States of America as represented by the …, priority 1998, dated 2005).

Tests used:
[1] = system: minimum of 12 human cancer cell lines; experiment: Hollow fiber assay in mice, point score; type: in vivo; settings: for Hollow Fiber Assay IP score: first number of cell; for Hollow Fiber Assay SC score: second number of cell; for IP+SC score / SC score: hollow fiber assay
Experimental: (§1) Compounds satisfying Formulas 1 and 2 also have been tested for in vivo activity in the hollow fiber assay. See Example 12 below for the procedure used for the in vivo tests. Each compound tested was tested against a minimum of 12 human cancer cell lines. Data is reported as % T/C (i.e., the […]) for each of the 2 compound doses against each of the cell lines with separate values calculated for the intraperitoneal and subcutaneous samples, with a target value for % T/C being about 50 or less.
(§2) Compounds were selected for further in vivo testing in standard subcutaneous xenograft models on the basis of several hollow fiber assay criteria. These criteria include: (1) a % T/C of 50 or less in 10 of the 48 possible test combinations (12 cell lines×2 sites×2 compound doses); (2) activity at a distance (intrapentoneal drug/subcutaneous culture) in a minimum of 4 of the 24 possible combinations; and/or (3) a net cell kill of 1 or more cell lines in either implant site. To simplify evaluation, a point system has been adopted which allows rapid assessment of a compound's activity. A value of 2 is assigned for each compound dose which results in a 50% or greater reduction in viable cell mass. The intraperitoneal and subcutaneous samples were scored separately so that criteria (1) and (2) could be evaluated. Compounds with a combined IP+SC score≧20, an SC score≧8, or a net cell kill of one or more cell lines were referred for xenograft testing. These criteria have been statistically validated by comparing the activity outcomes of greater than 80 randomly selected compounds in the hollow fiber assay and in the xenograft testing.
(§3) This example describes the method used for in vivo testing of mice. Human cancer cells were cultivated in polyvinylidene fluoride (PVDF) hollow fibers. A sample of each cancer cell line was implanted intraperitoneally and subcutaneously in mice. Each mouse received a total of 6 fibers, 3 intraperitoneally and 3 subcutaneously, representing 3 distinct cancer cell lines. Three mice were treated with compounds made according to the present invention at each of two test doses intraperitoneally using a QD×4 treatment schedule. Vehicle controls consisted of 6 mice receiving the compound diluent only The fiber cultures were collected on the day following the last treatment. Anticancer effects were assessed by determining viable cell mass for each of the coil line using a formazan dye (MTT) conversion assay. From this, the % TIC was calculated using the average optical density of the compound-treated samples divided by the average optical density of the vehicle controls. In addition, the net increase in cell mass was determined for each sample as samples of fiber cultures were assessed for viable cell mass on the day of implantation into mice. This allowed cytostatic and cytocidal capacities of these compounds to be assessed.

[2] = system: panel of approximately 60 different human tumor cell lines; experiment: National Cancer Institute drug screen, mean-graph parameters; type: cell-based; settings: mean over cell line panel, two days exposure; for GI50: Homo sapiens, 48 h, read-out: Tumor Cell Mean log GI50 (converted)
Procedure, shortened: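 About 60 human tumour cell lines in eight histology subpanels were exposed continuously to a concentration range for two days. GI50 (50% growth decrease versus untreated control), TGI (cell number equal to start) and LC50 (50% reduction versus start) were derived per cell line and summarised as mean-graph negative log10 values.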

OVCAR-5 = experiment: Hollow fiber assay in mice, OVCAR-5; type: in vivo, human; settings: QD X 4, Day 4; for % T/C OVCAR-5 IP: IP fibers; for % T/C OVCAR-5 SC: SC fibers
Experimental: as §1, §2
as §3, with “Vehicle controls consisted of 6 mice receiving the compound diluent only The fiber cultures were collected on the day following the last treatment.” left out

MDA-MB-231 = experiment: Hollow fiber assay in mice, MDA-MB-231; type: in vivo, human; settings: QD X 4, Day 4; for % T/C MDA-MB-231 IP: IP fibers; for % T/C MDA-MB-231 SC: SC fibers
Experimental: as §1, §2
as §3, with “Vehicle controls consisted of 6 mice receiving the compound diluent only The fiber cultures were collected on the day following the last treatment.” left out

U251 = experiment: Hollow fiber assay in mice, U251; type: in vivo, human; settings: QD X 4, Day 4; for % T/C U251 IP: IP fibers; for % T/C U251 SC: SC fibers
Experimental: as §1, §2
as §3, with “Vehicle controls consisted of 6 mice receiving the compound diluent only The fiber cultures were collected on the day following the last treatment.” left out

NCI-H522 = experiment: Hollow fiber assay in mice, NCI-H522; type: in vivo, human; settings: QD X 4, Day 4; for % T/C NCI-H522 IP: IP fibers; for % T/C NCI-H522 SC: SC fibers
Experimental: as §1, §2
as §3, with “Vehicle controls consisted of 6 mice receiving the compound diluent only The fiber cultures were collected on the day following the last treatment.” left out

SW-620 = experiment: Hollow fiber assay in mice, SW-620; type: in vivo, human; settings: QD X 4, Day 4; for % T/C SW-620 IP: IP fibers; for % T/C SW-620 SC: SC fibers
Experimental: as §1, §2
as §3, with “Vehicle controls consisted of 6 mice receiving the compound diluent only The fiber cultures were collected on the day following the last treatment.” left out

SF-295 = experiment: Hollow fiber assay in mice, SF-295; type: in vivo, human; settings: QD X 4, Day 4; for % T/C SF-295 IP: IP fibers; for % T/C SF-295 SC: SC fibers
Experimental: as §1, §2
as §3, with “Vehicle controls consisted of 6 mice receiving the compound diluent only The fiber cultures were collected on the day following the last treatment.” left out

NCI-H23 = experiment: Hollow fiber assay in mice, NCI-H23; type: in vivo, human; settings: QD X 4, Day 4; for % T/C NCI-H23 IP: IP fibers; for % T/C NCI-H23 SC: SC fibers
Experimental: as §1, §2
as §3, with “Vehicle controls consisted of 6 mice receiving the compound diluent only The fiber cultures were collected on the day following the last treatment.” left out

MDA-MB-435 = experiment: Hollow fiber assay in mice, MDA-MB-435; type: in vivo, human; settings: QD X 4, Day 4; for % T/C MDA-MB-435 IP: IP fibers; for % T/C MDA-MB-435 SC: SC fibers
Experimental: as §1, §2
as §3, with “Vehicle controls consisted of 6 mice receiving the compound diluent only The fiber cultures were collected on the day following the last treatment.” left out

[3] = Table 8, intraperitoneal fibers

## COC(=O)c1ccc(CCc2cc(O)c(Br)cc2O)cc1
[1]; Table 10
  Hollow Fiber Assay IP score: 0 + 0 = 0
  Hollow Fiber Assay SC score: 0 + 0 = 0
  Hollow Fiber Assay Total Ip and SC Score: 0 + 0 = 0
[2]; Table 10
  GI50: 12.3 µM
  Tumor Cell Mean log TGI: −4.54

## COC(=O)c1ccc(CCC2=CC(=O)C(Br)=CC2=O)cc1
[1]; Table 10
  Hollow Fiber Assay IP score: 0 + 0 = 0
  Hollow Fiber Assay SC score: 0 + 0 = 0
  Hollow Fiber Assay Total Ip and SC Score: 0 + 0 = 0
[2]; Table 10
  GI50: 14.1 µM
  Tumor Cell Mean log TGI: −4.43

## CC(C)OC(=O)c1ccc(CCC2=CC(=O)C(Br)=CC2=O)cc1
[1]; Table 10
  Hollow Fiber Assay IP score: 0 + 0 = 0
  Hollow Fiber Assay SC score: 0 + 0 = 0
  Hollow Fiber Assay Total Ip and SC Score: 0 + 0 = 0
[2]; Table 10
  Tumor Cell Mean log GI50: −4.85
  Tumor Cell Mean log TGI: −4.48

## CC(C)(C)OC(=O)c1ccc(NCc2cc(O)ccc2O)cc1 [COOC(CH3)3 / H / H, 4′-t-butylbenzoate-1′-N-2,5-dihydroxybenzylamine]
[1]; [3]
  Hollow Fiber Assay IP score: 2
[1]; Table 8, subcutaneous fibers
  Hollow Fiber Assay SC score: 2
[1]; Table 8
  Hollow Fiber Assay Total Ip and SC Score: 4
[2]; Table 8
  Tumor Cell Mean log GI50: −5.66
  Tumor Cell Mean log TGI: −5.03

## O=C(OCc1ccccc1)c1ccc(NCc2cc(O)ccc2O)cc1 [COOCH2Ph / H / H]
[1]; [3]
  Hollow Fiber Assay IP score: 6
[1]; Table 8, subcutaneous fibers
  Hollow Fiber Assay SC score: 2
[1]; Table 8
  Hollow Fiber Assay Total Ip and SC Score: 8
[2]; Table 8
  Tumor Cell Mean log GI50: −5.85
  Tumor Cell Mean log TGI: −5.35

## COC(=O)c1ccc(C=Cc2cc(O)ccc2O)cc1 [COOCH3 / 2,5-dihydoxyphenyl / CH═CH / H]
[1]; Table 10
  Hollow Fiber Assay IP score: 2
  Hollow Fiber Assay SC score: 4
  Hollow Fiber Assay Total Ip and SC Score: 6
[2]; Table 10
  GI50: 3.31 µM
  Tumor Cell Mean log TGI: −4.81

## COC(=O)c1ccc(/C=C/C2=CC(=O)C=CC2=O)cc1 [COOCH3 / 2,5-quinoyl / CH═CH / H]
[1]; Table 10
  Hollow Fiber Assay IP score: 2
  Hollow Fiber Assay SC score: 0
  Hollow Fiber Assay Total Ip and SC Score: 2
[2]; Table 10
  Tumor Cell Mean log GI50: −4.86
  Tumor Cell Mean log TGI: −4.40

## CC(C)OC(=O)c1ccc(CCC2=CC(=O)C=CC2=O)cc1 [COOCH(CH3)2 / 2,5-quinoyl / CH2—CH2 / H]
[1]; Table 10
  Hollow Fiber Assay IP score: 0 + 0 = 0
  Hollow Fiber Assay SC score: 0 + 0 = 0
  Hollow Fiber Assay Total Ip and SC Score: 0 + 0 = 0
[2]; Table 10
  Tumor Cell Mean log GI50: −5.05
  Tumor Cell Mean log TGI: −4.58

## CC(C)OC(=O)c1ccc(NCc2cc(O)ccc2O)cc1Cl [COOCH(CH3)2 / Cl / H, 5′-chloro-4′-isopropylbenzoate-1′-N-2,5-dihydroxybenzylamine]
[1]; [3]
  Hollow Fiber Assay IP score: 2
[1]; Table 8, subcutaneous fibers
  Hollow Fiber Assay SC score: 0
[1]; Table 8
  Hollow Fiber Assay Total Ip and SC Score: 2
[2]; Table 8
  Tumor Cell Mean log GI50: −5.46
  Tumor Cell Mean log TGI: −5.65

## CC(C)OC(=O)c1ccc(NCc2cc(O)ccc2O)cc1 [COOCH(CH3)2 / H / H]
[1]; [3]
  Hollow Fiber Assay IP score: 4
[1]; Table 8, subcutaneous fibers
  Hollow Fiber Assay SC score: 6
[1]; Table 8
  Hollow Fiber Assay Total Ip and SC Score: 10
[2]; Table 8
  Tumor Cell Mean log GI50: −5.52
  Tumor Cell Mean log TGI: −4.84

## CC(C)C(OC(=O)c1ccc(NCC2=CC(=O)C=CC2=O)cc1)C(C)C [COOCH[CH(CH3)2]2 / H / 2,5-quinoyl]
[1]; Table 9, intraperitoneal fibers
  Hollow Fiber Assay IP score: 2
[1]; Table 9, subcutaneous fibers
  Hollow Fiber Assay SC score: 4
[1]; Table 9
  Hollow Fiber Assay Total Ip and SC Score: 6
[2]; Table 9
  Tumor Cell Mean log GI50: −5.25
  Tumor Cell Mean log TGI: −4.78

## CC(C)C(OC(=O)c1ccc(NCc2cc(O)ccc2O)cc1)C(C)C [COOCH[CH(CH3)2]2 / H / H]
[1]; [3]
  Hollow Fiber Assay IP score: 4
[1]; Table 8, subcutaneous fibers
  Hollow Fiber Assay SC score: 2
[1]; Table 8
  Hollow Fiber Assay Total Ip and SC Score: 6
[2]; Table 8
  Tumor Cell Mean log GI50: −5.91
  Tumor Cell Mean log TGI: −5.35

## O=C(OC12CC3CC(CC(C3)C1)C2)c1ccc(NCc2cc(O)ccc2O)cc1 [Compound 6, 4′-adamantylbenzoate-1′-N-2,5-dihydroxybenzylamine]
OVCAR-5; 33.50 mg/kg/dose IP
  % T/C OVCAR-5 IP: >100%
  % T/C OVCAR-5 SC: 87%
OVCAR-5; 50.00 mg/kg/dose IP
  % T/C OVCAR-5 IP: 46%
  % T/C OVCAR-5 SC: 75%
[1]; [3]
  Hollow Fiber Assay IP score: 8
[1]; Table 8, subcutaneous fibers
  Hollow Fiber Assay SC score: 8
[1]; Table 8
  Hollow Fiber Assay Total Ip and SC Score: 16
[1]
  IP+SC score: 16
  SC score: 8
MDA-MB-231; 33.50 mg/kg/dose IP
  % T/C MDA-MB-231 IP: >100%
  % T/C MDA-MB-231 SC: 67%
MDA-MB-231; 50.00 mg/kg/dose IP
  % T/C MDA-MB-231 IP: >100%
  % T/C MDA-MB-231 SC: 92%
U251; 33.50 mg/kg/dose IP
  % T/C U251 IP: 100%
  % T/C U251 SC: >100%
U251; 50.00 mg/kg/dose IP
  % T/C U251 IP: >100%
  % T/C U251 SC: >100%
NCI-H522; 33.50 mg/kg/dose IP
  % T/C NCI-H522 IP: 94%
  % T/C NCI-H522 SC: 89%
NCI-H522; 50.00 mg/kg/dose IP
  % T/C NCI-H522 IP: 48%
  % T/C NCI-H522 SC: 89%
SW-620; 33.50 mg/kg/dose IP
  % T/C SW-620 IP: >100%
  % T/C SW-620 SC: 94%
SW-620; 50.00 mg/kg/dose IP
  % T/C SW-620 IP: >100%
  % T/C SW-620 SC: 80%
SF-295; 33.50 mg/kg/dose IP
  % T/C SF-295 IP: >100%
  % T/C SF-295 SC: >100%
SF-295; 50.00 mg/kg/dose IP
  % T/C SF-295 IP: 88%
  % T/C SF-295 SC: 88%
NCI-H23; 33.50 mg/kg/dose IP
  % T/C NCI-H23 IP: 100%
  % T/C NCI-H23 SC: >100%
NCI-H23; 50.00 mg/kg/dose IP
  % T/C NCI-H23 IP: >100%
  % T/C NCI-H23 SC: >100%
[2]; Table 8
  Tumor Cell Mean log GI50: −6.03
  Tumor Cell Mean log TGI: −5.44
MDA-MB-435; 33.50 mg/kg/dose IP
  % T/C MDA-MB-435 IP: >100%
  % T/C MDA-MB-435 SC: 94%
MDA-MB-435; 50.00 mg/kg/dose IP
  % T/C MDA-MB-435 IP: 72%
  % T/C MDA-MB-435 SC: 99%

## O=C(OCC12CC3CC(CC(C3)C1)C2)c1ccc(NCc2cc(O)ccc2O)cc1 [Compound 7, 4′-4′-adamantylmethylbenzoate-1′-N-2,5-dihydroxybenzylamine]
[1]; [3]
  Hollow Fiber Assay IP score: 12
[1]; Table 8, subcutaneous fibers
  Hollow Fiber Assay SC score: 8
[1]; Table 8
  Hollow Fiber Assay Total Ip and SC Score: 20
[1]
  IP+SC score: 20
  SC score: 8
[2]; Table 8
  Tumor Cell Mean log GI50: −5.89
  Tumor Cell Mean log TGI: −5.09
